# Data published in article PMC5843810, “18th European Symposium on Radiopharmacy and Radiopharmaceuticals” (EJNMMI Radiopharmacy and Chemistry, 2016).
# Like-named read-outs stand apart in the source and are kept apart here. Where a SMILES comes first, the peptide text is derived from it. Bridges are numbered along the chain shown (N, C = ends). [ ]: non-standard residue; d: D form. Ahx = NCCCCCC(=O)O; βAla = NCCC(=O)O
# Key:
# [1] = tested on: human breast cancer cell lines; parameters: method as in not given; conditions: ref not given; cited from earlier work
# Text: Introduction: Substituted benzotiazoles (BT) are a class of compounds with high affinity and selectivity to aryl hydrocarbon receptor (AhR), a receptor often expressed in breast cancer tissue.
# U87MG tumor = tested on: U87MG tumor
# Protocol: Materials and Methods: The radiolabelling was performed using an automated system with inline quality control. Fraction of 68GaCl3 eluate from an organic matrix based 68Ge/68Ga generator, 400-700 MBq in 2 mL, was used to label NOTA/NODAGA/DOTA-derivatised cRGD peptides. Elution, labeling and purification procedures were performed in 20-25 min. The biodistribution was tested in tumor bearing animal models (U87MG, Walker 256, B21 and AR42J). The affinity of cyclo-RGD peptides to tumor cell-surface receptors was determined by real-time quantification using Ligand Tracer.
# AR42J and U87MG = assay: Real-time binding and retention on tumor cells (Ligand Tracer); type: cell-based
# Protocol: Materials and Methods: The radiolabelling was performed using an automated system with inline quality control. Fraction of 68GaCl3 eluate from an organic matrix based 68Ge/68Ga generator, 400-700 MBq in 2 mL, was used to label NOTA/NODAGA/DOTA-derivatised cRGD peptides. Elution, labeling and purification procedures were performed in 20-25 min. […] The affinity of cyclo-RGD peptides to tumor cell-surface receptors was determined by real-time quantification using Ligand Tracer.
# HDAC6 [2] = molecular target: T1, HDAC6 (Homo sapiens, UniProt Q9UBN7); assay: Autoradiography on PC3/LNCaP prostate tumor slices; type: binding; conditions: 100 μM
# T1 construct: wild-type Wistar rat brain tissue and PC3/LNCaP prostate tumor slices; from tissue; host or cells: PC3 and LNCaP prostate tumour slices (xenografts)
# T1 sequence (Q9UBN7 1-1215): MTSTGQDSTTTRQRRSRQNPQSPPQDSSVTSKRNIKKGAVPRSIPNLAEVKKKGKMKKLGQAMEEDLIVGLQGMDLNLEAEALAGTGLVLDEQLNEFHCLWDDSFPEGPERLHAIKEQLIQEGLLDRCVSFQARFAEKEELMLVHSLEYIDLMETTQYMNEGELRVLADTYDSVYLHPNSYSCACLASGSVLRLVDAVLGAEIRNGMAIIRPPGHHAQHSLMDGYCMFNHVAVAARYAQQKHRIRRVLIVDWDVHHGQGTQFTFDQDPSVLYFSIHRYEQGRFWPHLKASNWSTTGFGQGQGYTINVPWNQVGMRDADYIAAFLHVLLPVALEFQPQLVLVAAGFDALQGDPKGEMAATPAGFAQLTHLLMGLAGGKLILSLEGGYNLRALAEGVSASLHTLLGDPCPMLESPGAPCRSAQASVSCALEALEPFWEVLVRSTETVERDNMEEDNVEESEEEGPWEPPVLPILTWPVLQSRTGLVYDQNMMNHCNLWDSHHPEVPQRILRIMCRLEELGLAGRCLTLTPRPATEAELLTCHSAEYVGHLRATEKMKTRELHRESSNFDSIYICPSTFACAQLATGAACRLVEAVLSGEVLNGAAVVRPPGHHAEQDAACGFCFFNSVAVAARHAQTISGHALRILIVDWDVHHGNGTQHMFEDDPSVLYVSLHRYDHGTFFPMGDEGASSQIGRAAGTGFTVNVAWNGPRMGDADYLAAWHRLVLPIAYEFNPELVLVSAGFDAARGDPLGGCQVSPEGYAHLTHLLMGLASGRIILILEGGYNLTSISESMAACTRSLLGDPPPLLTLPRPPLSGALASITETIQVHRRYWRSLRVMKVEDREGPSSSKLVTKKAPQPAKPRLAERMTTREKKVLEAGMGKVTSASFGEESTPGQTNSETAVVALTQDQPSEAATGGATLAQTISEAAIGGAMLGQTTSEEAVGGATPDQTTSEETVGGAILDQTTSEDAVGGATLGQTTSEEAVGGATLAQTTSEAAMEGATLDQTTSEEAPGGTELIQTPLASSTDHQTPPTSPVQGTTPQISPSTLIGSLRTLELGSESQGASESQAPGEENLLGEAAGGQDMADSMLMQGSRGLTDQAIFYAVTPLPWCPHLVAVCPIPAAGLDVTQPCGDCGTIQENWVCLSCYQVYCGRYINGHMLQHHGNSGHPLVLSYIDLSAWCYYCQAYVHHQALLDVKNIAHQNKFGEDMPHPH
# Protocol: (§1) The biodistribution was studied in NMRI-mice at 2, 10, 30 and 60 min (n = 3/time point) post injection (p.i.). Organs and tissues were harvested and radioactivity was counted in a gamma-counter. […] Slices were incubated with 18.5 MBq/400μL (brain) or 18.5 MBq/250 μL (tumor) of tracer with/without 100 μM of cold authentic reference compound (KB631) or non-structural related pan-HDAC inhibitor Suberoylanilide hydroxamic acid (SAHA).
# HDAC6 [3] = molecular target: T2, HDAC6 (Rattus norvegicus, UniProt A0A8I6GM68); assay: Autoradiography on Wistar rat brain tissue; type: binding; conditions: rat brain slices, 100 μM
# T2 construct: wild-type Wistar rat brain tissue; from tissue; host or cells: wild-type Wistar rat brain slices
# T2 sequence (A0A8I6GM68 whole entry): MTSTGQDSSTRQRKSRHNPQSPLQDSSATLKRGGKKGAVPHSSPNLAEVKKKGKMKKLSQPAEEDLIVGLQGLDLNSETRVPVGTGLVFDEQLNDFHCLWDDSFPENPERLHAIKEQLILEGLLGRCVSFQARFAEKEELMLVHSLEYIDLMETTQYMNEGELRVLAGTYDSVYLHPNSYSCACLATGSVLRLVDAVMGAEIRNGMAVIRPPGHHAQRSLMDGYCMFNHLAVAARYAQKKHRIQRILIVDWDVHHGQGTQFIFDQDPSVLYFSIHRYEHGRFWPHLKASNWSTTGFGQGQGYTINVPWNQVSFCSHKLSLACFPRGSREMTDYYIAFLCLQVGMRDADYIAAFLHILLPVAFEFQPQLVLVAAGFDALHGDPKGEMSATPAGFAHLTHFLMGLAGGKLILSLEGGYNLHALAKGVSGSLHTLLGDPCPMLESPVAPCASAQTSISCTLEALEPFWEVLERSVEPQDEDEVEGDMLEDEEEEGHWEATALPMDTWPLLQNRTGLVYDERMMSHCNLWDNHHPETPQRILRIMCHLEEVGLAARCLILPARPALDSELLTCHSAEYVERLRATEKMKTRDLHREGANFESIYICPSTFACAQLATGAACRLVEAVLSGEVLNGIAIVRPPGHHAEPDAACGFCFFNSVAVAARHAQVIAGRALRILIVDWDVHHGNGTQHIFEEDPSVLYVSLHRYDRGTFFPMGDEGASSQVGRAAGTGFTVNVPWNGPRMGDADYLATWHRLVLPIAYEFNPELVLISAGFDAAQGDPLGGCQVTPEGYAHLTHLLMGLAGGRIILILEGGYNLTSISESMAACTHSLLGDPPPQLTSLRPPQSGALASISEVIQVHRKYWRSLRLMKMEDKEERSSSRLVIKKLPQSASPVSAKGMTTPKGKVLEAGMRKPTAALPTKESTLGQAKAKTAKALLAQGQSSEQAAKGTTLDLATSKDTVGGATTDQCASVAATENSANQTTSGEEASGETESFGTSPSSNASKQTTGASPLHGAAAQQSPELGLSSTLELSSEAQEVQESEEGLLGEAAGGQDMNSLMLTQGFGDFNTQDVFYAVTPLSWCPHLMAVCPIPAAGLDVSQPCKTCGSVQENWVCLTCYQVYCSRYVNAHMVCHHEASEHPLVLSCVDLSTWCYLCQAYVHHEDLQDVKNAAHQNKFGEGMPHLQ
# Protocol: as §1
# GRP receptors = GRP receptors (Homo sapiens, UniProt P30550); assay: GRP receptor affinity of PD-410; type: binding
# Sequence of GRP receptors (P30550 whole entry): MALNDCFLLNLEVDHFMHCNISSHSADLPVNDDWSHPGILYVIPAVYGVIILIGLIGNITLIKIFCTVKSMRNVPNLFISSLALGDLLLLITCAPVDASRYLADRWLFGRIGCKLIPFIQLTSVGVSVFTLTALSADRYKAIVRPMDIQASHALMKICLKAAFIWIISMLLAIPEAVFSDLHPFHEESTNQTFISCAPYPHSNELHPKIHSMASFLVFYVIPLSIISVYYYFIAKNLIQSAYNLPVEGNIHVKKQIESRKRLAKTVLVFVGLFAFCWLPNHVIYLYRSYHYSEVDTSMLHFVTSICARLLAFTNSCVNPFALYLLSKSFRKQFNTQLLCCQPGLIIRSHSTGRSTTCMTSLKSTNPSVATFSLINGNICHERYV
# Text: Introduction: The Gastrin Releasing Peptide (GRP) receptor has high expression on prostate cancer cells. Consequently, bombesin, a 14-amino acid peptide that binds with high affinity to GRP receptors, has been widely studied for the development of radiopeptides for application in prostate cancer imaging. To overcome some limitations of radiolabelled peptides, we developed a small molecule non-peptidic radiotracer targeting GRP receptors. […] The aim of the present study is to develop a non-peptidic fluorine-18 PET radioligand with antagonist properties, for visualization of GRP receptors.
# [4] = healthy Balb/c mice n=5, i.v., 1h p.i.
# Protocol: The biodistribution of such prepared 68Ga-PSMA-11 was investigated in healthy Balb/c mice (n=5) after intravenous injection of 0.1mL (38 MBq/mL) (at 15, 30, 60 and 120min).
# [5] = Extended single dose toxicity study in Sprague-Dawley rats; type: in vivo
# [6] = PET/CT imaging in nude mice bearing U87MG xenograft tumor; type: in vivo; conditions: mouse, 90 min post injection
# Protocol: Materials and methods: The PET imaging properties of [^68Ga]FSC(succ-RGD)3 were studied in nude mice bearing M21 human melanoma xenografts and human glioblastoma U87MG xenograft tumor. A parallel PET imaging of ^68GaNODAGA-RGD in same mouse bearing U87MG xenograft tumor was performed as a comparison.
# [7] = Protocol: Methods: Labelling was carried out in a remote controlled synthesis unit under clean room conditions. Quality control included TLC, HPLC, GC, pH control, Ge-breakthrough, half-life, endotoxin content, and control of sterility. Storage stability after 4 h was studied and dose estimations based on animal data were carried out using OLINDA. Sprague-Dawley rats were used for an extended single dose toxicity study. The phase I clinical study included 9 patients with hepatocellular carcinoma (HCC). Static scans at 5, 30, and 60 min p.i. including 5 bed positions each were performed using the Discovery 690 PET/CT. Blood was sampled 30 and 60 min p.i. and urine 60 min p.i. and used for stability studies via HPLC.
# MC1R = molecular target: T3, MC1R (Mus musculus, UniProt Q01727); assay: MC1R binding affinity in B16/F10 melanoma cells; conditions: unlabelled peptides
# T3 construct: endogenous in cells; host or cells: B16/F10
# T3 sequence (Q01727 whole entry): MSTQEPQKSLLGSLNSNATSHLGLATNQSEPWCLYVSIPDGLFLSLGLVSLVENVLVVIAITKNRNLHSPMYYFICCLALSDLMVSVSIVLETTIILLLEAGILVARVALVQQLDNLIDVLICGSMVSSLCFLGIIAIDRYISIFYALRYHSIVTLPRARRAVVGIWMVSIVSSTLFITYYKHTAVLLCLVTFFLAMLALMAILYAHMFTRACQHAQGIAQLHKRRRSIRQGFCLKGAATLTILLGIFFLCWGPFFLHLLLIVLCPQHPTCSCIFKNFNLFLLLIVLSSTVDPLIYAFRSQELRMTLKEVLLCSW
compound,measurement,setting,value
"COc1ccc(-c2nc3cc(F)ccc3s2)cc1OC [PMX 610, 2-(3,4-dimethoxyphenyl)-5-fluorobenzothiazole]",GI50,[1],< 0.1 nM
"DOTA-E-[c(RGDfK)2] (head to tail) [68Ga-DOTA-E-[c(RGDfK)2], 68Ga-labelled dimeric cyclo-RGD peptide]",tumor uptake,U87MG tumor,Up to 5.3 % ID/g
same,"retention, from activity in the cells",AR42J and U87MG,up to 58%
"O=C(CCCCCCC(=O)Nc1ccccc1)NO [SAHA, Suberoylanilide hydroxamic acid]","displacement of [11C]KB631 binding, LNCaP",HDAC6 [2]; LNCaP tumor slices,59%
same,"displacement of [11C]KB631 binding, PC3",HDAC6 [2]; PC3 tumor slices,39%
same,"displacement of [11C]KB631 binding, brain",HDAC6 [3],73%
"C[C@@](Cc1c[nH]c2ccccc12)(NC(=O)Nc1ccc([N+](=O)[O-])cc1)C(=O)NCC1(c2ccc(OCCF)cn2)CCCCC1 [PD-410, (S)-3-(1H-indol-3-yl)-N-[1-[5-(2-fluoroethoxy)pyridin-2-yl]cyclohexylmethyl]-2-methyl-2-[3-(4-nitrophenyl)ureido]propionamide]",Ki,GRP receptors,38 ± 2 nM
"O=C(O)CCc1ccc(O)c(CN(CCN(CC(=O)O)Cc2cc(CCC(=O)NCCCCCC(=O)NCCCC[C@H](NC(=O)N[C@@H](CCC(=O)O)C(=O)O)C(=O)O)ccc2O)CC(=O)O)c1 [68Ga-PSMA-11, Glu-CO-Lys(Ahx)-HBED-CC, metal not drawn]",urine elimination,[4],> 70%
"N=C(N)NCCC[C@@H]1NC(=O)[C@H](CCCCNC(=O)CCC(C(=O)O)N2CCN(CC(=O)O)CCN(CC(=O)O)CC2)NC(=O)[C@@H](Cc2ccccc2)NC(=O)[C@H](CC(=O)O)NC(=O)CNC1=O (stereo partly drawn) [[68Ga]NODAGA-RGD, metal not drawn]",tolerability in single dose toxicity study,[5],well tolerated in animals
same,tissue to tissue ratio at […],"[6]; tumour and kidneys, read-out: tumor/kidneys ratio",1.6
same,tissue to tissue ratio at […],"[6]; tumour and muscle, read-out: tumor/muscle ratio",5
same,side effects in clinical study,[7]; 9 patients with HCC,no severe side effects were observed
same,calculated effective dose,"[7]; human, in vivo",21.5±5.4 μSv/MBq
same,metabolic stability,"[7]; patient blood (30, 60 min p.i.) and urine (60 min p.i.), HPLC",High metabolic stability
"CC(C)[C@H](NC(=O)[C@@H]1CCCN1C(=O)[C@H](CCCNC(=N)N)NC(=O)[C@@H]1CCC(=O)NCCCC[C@H](NC(=O)CCNC(=O)CCCCCNC(=O)[C@@H](N)CS)C(=O)N[C@@H](CCC(=O)O)C(=O)N[C@@H](Cc2c[nH]cn2)C(=O)N[C@H](Cc2ccccc2)C(=O)N[C@@H](CCCNC(=N)N)C(=O)N[C@@H](Cc2c[nH]c3ccccc23)C(=O)N1)C(N)=O [NAP_NS2, H-Cys-Ahx-βAla^3-c[Lys^4-Glu-His-D-Phe-Arg-Trp-Glu^10]-Arg^11-Pro-Val-NH2] (H-C[Ahx][βAla]KEH[dF]RWERPV-NH2; lactam 4-10)",Ki,MC1R,7.1 ± 2.4 nM
